Counter-ions that a name gives are not always drawn. Like-named read-outs stand apart in the source and are kept apart here.
How the values were obtained:
[1] = Volatility of perfuming compounds in air; format: physicochemical
[2] = Odor threshold of perfuming compounds in air
[3] = Log P (n-octanol/water) of perfuming compounds
[4] = n-octanol/water, perfuming compounds having a fruity note (Table 6)
[5] = Table 5, perfuming compounds having a green note
[6] = Table 10, perfuming compounds having a woody note
[7] = Table 8, perfuming compounds having a sweet note
[8] = Table 9, perfuming compounds having a gourmand note

| Compound | logP (physchem; n-octanol/water) | Volatility ([1]; Table 4, watery note) | Odor Threshold ([2]; Table 4, watery note) | Odor Threshold ([2]; Table 7, citrus note) | also measured |
| --- | --- | --- | --- | --- | --- |
| CC(C)=CCCC1=CCC(C)(C=O)CC1 (racemic) | 5.14 | 26.54 μg/l air | 2.72E−02 μg/l air | – | – |
| Cc1ccc2c(c1)CC(C)(CO)C2 (racemic) | 3.12 | 4.86 μg/l air | 1.28E−04 μg/l air | – | – |
| CC(C)=CCCC(C)C=O (racemic) | 3.15 | – | 2.11E−04 μg/l air | – | Log P (n-octanol/water) [3, 4]: 3.15 |
| C=CC(C)CC(=O)CC(C)C (racemic) | 3.12 | – | – | 2.78E−01 μg/l air | Log P (n-octanol/water) ([3]; Table 7, citrus note): 3.12 |
| CC(C)=CCCC(C)CCCC(C)C=O (racemic) | 5.2 | 18.23 μg/l air | 1.59E−02 μg/l air | – | – |
| CC(C)CCCC(C)CCO (racemic) | 4.24 | – | – | 4.59E−02 μg/l air | Volatility ([1]; Table 7, citrus note): 76.57 μg/l air |
| CC(C)=CCCC(C)CCOCC=O (racemic) | 4.33 | – | – | 8.95E−04 μg/l air | Volatility ([1]; Table 7, citrus note): 4.70 μg/l air |
| C=CC(C)(CCC=C(C)C)OC(C)=O (racemic) [(+−)-1,5-DIMETHYL-1-VINYL-4-HEXENYL ACETATE] | – | – | – | 7.40E−02 μg/l air | logP (physchem): 4.04; Log P (n-octanol/water) ([3]; Table 7, citrus note): 4.04; Log P (n-octanol/water) [3, 4]: 4.04 |
| CC(=O)OC(C)c1ccccc1 (racemic) [(+−)-1-PHENYLETHYL ACETATE] | 2.22 | – | – | 4.43E−02 μg/l air | Log P (n-octanol/water) ([3]; Table 7, citrus note): 2.22 |
| CC(C=O)Cc1ccc(C(C)(C)C)cc1 (racemic) [(+−)-2-methyl-3-[4-(2-methyl-2-propanyl)phenyl]propanal] | 3.9 | 12.86 μg/l air | 2.39E−04 μg/l air | – | – |
| CCCCCCCCCC(C)C=O (racemic) [(+−)-2-methylundecanal] | 5.01 | 75.55 μg/l air | 7.24E−05 μg/l air | – | – |
| CCCCCC(C#N)CCC (racemic) [(+−)-2-propylheptanenitrile] | 3.67 | – | – | 7.83E−02 μg/l air | Log P (n-octanol/water) ([3]; Table 7, citrus note): 3.67 |
| C=CC(C)(O)CCC=C(C)C (racemic) [(+−)-3,7-dimethyl-1,6-octadien-3-ol] | – | – | – | 8.89E−05 μg/l air | – |
| CC(C=O)Cc1ccc2c(c1)OCO2 (racemic) [(+−)-3-(1,3-BENZODIOXOL-5-YL)-2-METHYLPROPANAL] | – | 3.57 μg/l air | 2.23E−04 μg/l air | – | logP (physchem): 1.28 |
| CC(C)c1cccc(C(C)CC=O)c1 (racemic) [(+−)-3-(3-ISOPROPYL-1-PHENYL)BUTANAL] | – | 14.74 μg/l air | 7.71E−04 μg/l air | – | Volatility [1, 5]: 14.74 μg/l air |
| CC(C=O)Cc1ccc(C(C)C)cc1 (racemic) [(+−)-3-(4-isopropylphenyl)-2-methylpropanal] | 3.59 | 24.85 μg/l air | 3.00E−03 μg/l air | – | – |
| COc1ccc(CC(C)C=O)cc1 (racemic) [(+−)-3-(4-methoxyphenyl)-2-methylpropanal] | 2.8 | 18.99 μg/l air | 9.79E−03 μg/l air | – | Volatility [1, 5]: 18.99 μg/l air; Log P (n-octanol/water) [3, 5]: 2.80 |
| CC(CC=O)CCCC(C)(C)O (racemic) [(+−)-7-hydroxy-3,7-dimethyloctanal] | 2 | 12.81 μg/l air | 6.98E−03 μg/l air | – | – |
| COCC(C)Cc1ccccc1 (racemic) [(+−)-(3-methoxy-2-methylpropyl)benzene] | 3.57 | – | – | 1.51E−02 μg/l air | Log P (n-octanol/water) ([3]; Table 7, citrus note): 3.57; Log P (n-octanol/water) [3, 4]: 3.57 |
| CCC(C)C(=O)OC(C)C (racemic) [(+−)-ISOPROPYL 2-METHYLBUTANOATE] | 2.85 | – | – | 8.42E−03 μg/l air | Log P (n-octanol/water) ([3]; Table 7, citrus note): 2.85 |
| CC(C)CC1CC(C)(O)CCO1 (racemic) [(+−)-TETRAHYDRO-2-ISOBUTYL-4-METHYL-4(2H)-PYRANOL] | 2.22 | 79.79 μg/l air | 1.35E−02 μg/l air | – | – |
| CCCCC(CC)C(=O)OC (racemic) [(+−)-methyl 2-ethylhexanoate] | 3.37 | – | – | – | Volatility (μg/l air) [1, 6]: 6677.64 μg/l air; Log P (n-octanol/water) [3, 6]: 3.37 |
| CCCCC[C@H]1C(=O)CC[C@@H]1CC(=O)OC (racemic) [methyl 2-((1RS,2RS)-3-oxo-2-pentylcyclopentyl)acetate] | 2.92 | – | – | 5.77E−04 μg/l air | Volatility ([1]; Table 7, citrus note): 2.12 μg/l air |
| C=C(C)C1CC=C(C)CC1 (single isomer, unassigned; (+)) [(+)-LIMONENE] | – | – | – | 1.29E−01 μg/l air | – |
| CC(OC=O)C1CCCC(C)(C)C1 (stereo not drawn) [1-(3,3-DIMETHYL-1-CYCLOHEXYL)ETHYL FORMATE] | 4.01 | – | – | 2.05E−01 μg/l air | – |

| Compound | logP (physchem; n-octanol/water) | Volatility ([1]; Table 4, watery note) | Odor Threshold ([2]; Table 4, watery note) | Odor Threshold ([2]; Table 7, citrus note) | also measured |
| --- | --- | --- | --- | --- | --- |
| CC1=CCC(C(C)C)=CC1 [1-methyl-4-(2-propanyl)-1,4-cyclohexadiene] | – | – | – | 1.16E−01 μg/l air | logP (physchem): 5.87; Volatility ([1]; Table 7, citrus note): 4298.67 μg/l air |
| CCOc1ccc2ccccc2c1 [2-ETHOXYNAPHTHALENE] | 3.82 | – | – | 3.57E−03 μg/l air | Volatility ([1]; Table 7, citrus note): 22.67 μg/l air |
| O=COCCc1ccccc1 [2-PHENYLETHYL FORMATE] | 1.9 | – | – | 8.34E−04 μg/l air | Log P (n-octanol/water) ([3]; Table 7, citrus note): 1.90; Log P (n-octanol/water) [3, 4]: 1.90 |
| C/C=C/c1ccc(O)c(OC)c1 [2-methoxy-4-[(1E)-1-propen-1-yl]phenol] | 2.15 | – | – | – | Volatility (μg/l air) [1, 7]: 11.28 μg/l air; Volatility (μg/l air) [1, 8]: 11.28 μg/l air; Log P (n-octanol/water) [3, 8]: 2.15 |
| COc1cc(C=O)ccc1O [4-hydroxy-3-methoxybenzaldehyde] | 0.72 | – | – | – | Volatility (μg/l air) [1, 7]: 4.24 μg/l air; Volatility (μg/l air) [1, 8]: 4.24 μg/l air; Log P (n-octanol/water) [3, 8]: 0.72 |
| CCCCCCC1CCCC(=O)O1 (stereo not drawn) [6-hexyltetrahydro-2H-pyran-2-one] | 3 | – | – | – | Volatility (μg/l air) ([1]; Table 6, perfuming compounds having a fruity note): 4.64 μg/l air; Volatility (μg/l air) [1, 7]: 4.64 μg/l air; Volatility (μg/l air) [1, 8]: 4.64 μg/l air; Log P (n-octanol/water) [3, 7]: 3.00; Log P (n-octanol/water) [3, 8]: 3.00 |
| CC(C)(C)c1ccc2c(c1)OCC(=O)CO2 [7-(2-methyl-2-propanyl)-2H-1,5-benzodioxepin-3(4H)-one] | 2.97 | 4.37 μg/l air | 1.53E−04 μg/l air | – | Volatility [1, 5]: 4.37 μg/l air; Log P (n-octanol/water) [3, 5]: 2.97 |
| CCCc1ccc2c(c1)OCC(=O)CO2 [7-PROPYL-2H,4H-1,5-BENZODIOXEPIN-3-ONE] | 2.79 | 4.85 μg/l air | 6.43E−05 μg/l air | – | Volatility [1, 5]: 4.85 μg/l air; Log P (n-octanol/water) [3, 5]: 2.79 |
| CC1=CC2CC(C=O)C1CC2C(C)C (stereo not drawn) [8-ISOPROPYL-6-METHYL-BICYCLO[2.2.2]OCT-5-ENE-2-CARBALDEHYDE] | 3.81 | 131.02 μg/l air | 7.11E−05 μg/l air | – | Volatility [1, 5]: 131.02 μg/l air; Log P (n-octanol/water) [3, 5]: 3.81 |
| C=CCCCCCCCCC=O [10-undecenal] | 3.93 | 136.73 μg/l air | 3.15E−03 μg/l air | – | – |
| CCC/C=C/C=O [(2E)-2-HEXENAL] | 1.62 | – | – | 2.53E−03 μg/l air | Log P (n-octanol/water) ([3]; Table 7, citrus note): 1.62; Log P (n-octanol/water) [3, 4]: 1.62 |
| CC/C=C\CC/C=C/CO [(2E,6Z)-2,6-NONADIEN-1-OL] | 2.68 | 98.76 μg/l air | 3.22E−06 μg/l air | – | Volatility [1, 5]: 98.76 μg/l air; Log P (n-octanol/water) [3, 5]: 2.68 |
| CC/C=C\CC/C=C/C=O [(2E,6Z)-2,6-NONADIENAL″, (2E,6Z)-2,6-NONADIENAL] | – | 632.43 μg/l air | 1.46E−04 μg/l air | – | Volatility [1, 5]: 632.43 μg/l air |
| CCCCC/C=C/CCC=O [(E)-4-DECENAL] | – | – | – | 7.59E−05 μg/l air | Volatility ([1]; Table 7, citrus note): 691.34 μg/l air |
| CCCOC(=O)[C@H](C)OC(C)(C)CC [(−)-PROPYL (S)-2-(1,1-DIMETHYLPROPOXY)PROPANOATE] | 3.17 | – | – | 4.98E−01 μg/l air | – |
| CCCCOC(C)=O [BUTYL ACETATE] | 2.11 | – | – | – | Volatility (μg/l air) [1]: 117207.52 μg/l air; Log P (n-octanol/water) [3, 7]: 2.11; Log P (n-octanol/water) [3, 8]: 2.11 |
| CCCCCCCCCC=O [DECANAL″, DECANAL] | 3.99 | 466.56 μg/l air | 1.92E−03 μg/l air | – | – |
| C=CCSSCC=C [DIALLYL DISULFIDE] | – | – | – | – | logP (physchem): 3.3; Volatility (μg/l air) [1, 7]: 5487.52 μg/l air; Volatility (μg/l air) [1, 8]: 5487.52 μg/l air; Log P (n-octanol/water) [3, 8]: 3.30 |
| CCCCCCCCCCCC=O [DODECANAL] | 4.94 | 144.79 μg/l air | 9.90E−04 μg/l air | – | – |
| CCCCCCCCCCCC#N [DODECANENITRILE] | 1.61 | 56.74 μg/l air | 3.20E−06 μg/l air | – | – |
| COC(=O)c1c(C)cc(O)c(C)c1O [METHYL 2,4-DIHYDROXY-3,6-DIMETHYLBENZOATE] | 2.3 | 1.52 μg/l air | 4.89E−06 μg/l air | – | – |
| CCCCCC#CC(=O)OC [METHYL 2-OCTYNOATE″, METHYL 2-OCTYNOATE] | 2.9 | 472.01 μg/l air | 8.31E−04 μg/l air | – | Volatility [1, 5]: 472.01 μg/l air |
| CCCCCCCOC(C)=O [heptyl acetate] | 3.69 | – | – | 1.32E−01 μg/l air | Log P (n-octanol/water) ([3]; Table 7, citrus note): 3.69 |
| CCCCCCCCOC(C)=O [octyl acetate] | 4.29 | – | – | 1.76E−01 μg/l air | Log P (n-octanol/water) ([3]; Table 7, citrus note): 4.29 |
| CCCCCCCCCCC=O [undecanal] | 4.56 | 178.29 μg/l air | 1.65E−03 μg/l air | – | – |
